Among the data in the supplement of paper PMC10307832 are relative viability values, retold here.

Holding throughout (assay): relative viability (nuclei count vs DMSO), 5 days (fraction); higher = more cells survive
Compound in the assay “Omipalisib + Palbociclib”: COc1ncc(-c2ccc3nccc(-c4ccnnc4)c3c2)cc1NS(=O)(=O)c1ccc(F)cc1F [Omipalisib] + CC(=O)c1c(C)c2cnc(Nc3ccc(N4CCNCC4)cn3)nc2n(C2CCCC2)c1=O [Palbociclib] (partner 0.5 µM)
The procedure, abridged:
(§1)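 Medians of duplicate plates are given as relative viability. That measure is the nuclei count in treated wells divided by the count in vehicle wells. Counts were taken on 4× images of lung cancer cell lines in 1536-well plates, 5 days after pin-tool dosing the day after seeding with one drug alone or a fixed anchor-drug dose plus five library-drug doses (not always all listed) in √10 steps.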

Compound in the assay “Omipalisib + Foretinib”: COc1ncc(-c2ccc3nccc(-c4ccnnc4)c3c2)cc1NS(=O)(=O)c1ccc(F)cc1F [Omipalisib] + COc1cc2c(Oc3ccc(NC(=O)C4(C(=O)Nc5ccc(F)cc5)CC4)cc3F)ccnc2cc1OCCCN1CCOCC1 [Foretinib] (partner 0.25 µM)
The procedure, abridged:
as §1

Compound in the assay “Omipalisib + OSI-027”: COc1ncc(-c2ccc3nccc(-c4ccnnc4)c3c2)cc1NS(=O)(=O)c1ccc(F)cc1F [Omipalisib] + COc1cccc2cc(-c3nc([C@H]4CC[C@H](C(=O)O)CC4)n4ncnc(N)c34)[nH]c12 [OSI-027] (partner 0.5 µM)
In outline:
as §1

Compound in the assay “Omipalisib + Crizotinib”: COc1ncc(-c2ccc3nccc(-c4ccnnc4)c3c2)cc1NS(=O)(=O)c1ccc(F)cc1F [Omipalisib] + C[C@@H](Oc1cc(-c2cnn(C3CCNCC3)c2)cnc1N)c1c(Cl)ccc(F)c1Cl [Crizotinib] (partner 1 µM)
The procedure, abridged: as §1

Compound in the assay “Omipalisib + Dasatinib”: COc1ncc(-c2ccc3nccc(-c4ccnnc4)c3c2)cc1NS(=O)(=O)c1ccc(F)cc1F [Omipalisib] + Cc1nc(Nc2ncc(C(=O)Nc3c(C)cccc3Cl)s2)cc(N2CCN(CCO)CC2)n1 [Dasatinib] (partner 0.075 µM)
The procedure, abridged: as §1

Compound in the assay “Omipalisib + Pemetrexed”: COc1ncc(-c2ccc3nccc(-c4ccnnc4)c3c2)cc1NS(=O)(=O)c1ccc(F)cc1F [Omipalisib] + Nc1nc2[nH]cc(CCc3ccc(C(=O)N[C@@H](CCC(=O)O)C(=O)O)cc3)c2c(=O)[nH]1 [Pemetrexed] (partner 0.2 µM)
In outline: as §1

As to BEN, the relative viability with Omipalisib + Palbociclib (first compound 0.0003 µM) came out at 0.434; with Omipalisib + Palbociclib (first compound 0.003 µM), 0.444; with Omipalisib + Palbociclib (first compound 0.03 µM), 0.452; with Omipalisib + Foretinib (first compound 0.0003 µM) it was 0.518; in the assay with Omipalisib + Foretinib (first compound 0.003 µM) it was 0.403; with Omipalisib + Foretinib (first compound 0.03 µM) it was 0.538. Moreover, the relative viability worked out at 0.311 with Omipalisib + OSI-027 (first compound 0.0003 µM); 0.271 in the assay with Omipalisib + OSI-027 (first compound 0.003 µM); 0.291 with Omipalisib + OSI-027 (first compound 0.03 µM); 0.635 with Omipalisib + Crizotinib (first compound 0.0003 µM); 0.531 with Omipalisib + Crizotinib (first compound 0.003 µM); 0.464 with Omipalisib + Crizotinib (first compound 0.03 µM). For the same cell line, the relative viability in the assay with Omipalisib + Dasatinib (first compound 0.0003 µM) was 0.277; in the assay with Omipalisib + Dasatinib (first compound 0.003 µM) it was 0.3; with Omipalisib + Dasatinib (first compound 0.03 µM) it was 0.307; in the assay with Omipalisib + Pemetrexed (first compound 0.0003 µM), 0.694; with Omipalisib + Pemetrexed (first compound 0.003 µM) it was 0.581; in the assay with Omipalisib + Pemetrexed (first compound 0.03 µM), 0.569.
On to SK-MES-1, for which the relative viability turned out to be 0.273 in the assay with Omipalisib + Palbociclib (first compound 0.0003 µM); 0.271 with Omipalisib + Palbociclib (first compound 0.003 µM); 0.261 in the assay with Omipalisib + Palbociclib (first compound 0.03 µM); 0.73 with Omipalisib + Foretinib (first compound 0.0003 µM); 0.461 with Omipalisib + Foretinib (first compound 0.003 µM); 0.344 with Omipalisib + Foretinib (first compound 0.03 µM). The relative viability in the assay with Omipalisib + OSI-027 (first compound 0.0003 µM) was found to be 0.508; in the assay with Omipalisib + OSI-027 (first compound 0.003 µM) it was 0.252; with Omipalisib + OSI-027 (first compound 0.03 µM) it was 0.29; with Omipalisib + Crizotinib (first compound 0.0003 µM), 0.954; with Omipalisib + Crizotinib (first compound 0.003 µM) it was 0.656; with Omipalisib + Crizotinib (first compound 0.03 µM) it was 0.611. Moreover, the relative viability in the assay with Omipalisib + Dasatinib (first compound 0.0003 µM) turned out to be 0.316; with Omipalisib + Dasatinib (first compound 0.003 µM), 0.174; in the assay with Omipalisib + Dasatinib (first compound 0.03 µM) it was 0.136; in the assay with Omipalisib + Pemetrexed (first compound 0.0003 µM), 0.994; with Omipalisib + Pemetrexed (first compound 0.003 µM) it was 0.744; with Omipalisib + Pemetrexed (first compound 0.03 µM) it was 0.376.
As to NCI-H1755, the relative viability was 0.428 in the assay with Omipalisib + Palbociclib (first compound 0.0003 µM); 0.421 with Omipalisib + Palbociclib (first compound 0.003 µM); 0.362 with Omipalisib + Palbociclib (first compound 0.03 µM); 0.911 with Omipalisib + Foretinib (first compound 0.0003 µM); 0.821 with Omipalisib + Foretinib (first compound 0.003 µM); 0.51 with Omipalisib + Foretinib (first compound 0.03 µM). The relative viability with Omipalisib + OSI-027 (first compound 0.0003 µM) was determined as 0.707; in the assay with Omipalisib + OSI-027 (first compound 0.003 µM), 0.501; with Omipalisib + OSI-027 (first compound 0.03 µM), 0.448; in the assay with Omipalisib + Crizotinib (first compound 0.0003 µM), 0.848; in the assay with Omipalisib + Crizotinib (first compound 0.003 µM), 0.805; with Omipalisib + Crizotinib (first compound 0.03 µM) it was 0.481. For the same cell line, the relative viability in the assay with Omipalisib + Dasatinib (first compound 0.0003 µM) was 0.445; with Omipalisib + Dasatinib (first compound 0.003 µM), 0.271; with Omipalisib + Dasatinib (first compound 0.03 µM), 0.236; with Omipalisib + Pemetrexed (first compound 0.0003 µM), 0.504; with Omipalisib + Pemetrexed (first compound 0.003 µM), 0.393; with Omipalisib + Pemetrexed (first compound 0.03 µM), 0.402.
For NCI-H1793, the relative viability with Omipalisib + Palbociclib (first compound 0.0003 µM) came to 0.243; in the assay with Omipalisib + Palbociclib (first compound 0.003 µM), 0.215; in the assay with Omipalisib + Palbociclib (first compound 0.03 µM), 0.15; with Omipalisib + Foretinib (first compound 0.0003 µM), 0.559; in the assay with Omipalisib + Foretinib (first compound 0.003 µM) it was 0.399; with Omipalisib + Foretinib (first compound 0.03 µM) it was 0.244. Also, the relative viability in the assay with Omipalisib + OSI-027 (first compound 0.0003 µM) was determined as 0.261; with Omipalisib + OSI-027 (first compound 0.003 µM) it was 0.183; with Omipalisib + OSI-027 (first compound 0.03 µM), 0.168; in the assay with Omipalisib + Dasatinib (first compound 0.0003 µM), 0.331; with Omipalisib + Dasatinib (first compound 0.003 µM), 0.279; in the assay with Omipalisib + Dasatinib (first compound 0.03 µM) it was 0.273. For the same cell line, the relative viability was 0.696 in the assay with Omipalisib + Pemetrexed (first compound 0.0003 µM), 0.463 with Omipalisib + Pemetrexed (first compound 0.003 µM) and 0.24 in the assay with Omipalisib + Pemetrexed (first compound 0.03 µM).
In the case of HCC-15, the relative viability in the assay with Omipalisib + Palbociclib (first compound 0.0003 µM) worked out at 0.748; with Omipalisib + Palbociclib (first compound 0.003 µM) it was 0.614; with Omipalisib + Palbociclib (first compound 0.03 µM), 0.521; with Omipalisib + Foretinib (first compound 0.0003 µM), 0.944; with Omipalisib + Foretinib (first compound 0.003 µM), 0.814; with Omipalisib + Foretinib (first compound 0.03 µM), 0.721. In addition, the relative viability with Omipalisib + OSI-027 (first compound 0.0003 µM) came to 0.628; with Omipalisib + OSI-027 (first compound 0.003 µM), 0.357; with Omipalisib + OSI-027 (first compound 0.03 µM) it was 0.413; with Omipalisib + Crizotinib (first compound 0.0003 µM), 0.793; in the assay with Omipalisib + Crizotinib (first compound 0.003 µM), 0.734; in the assay with Omipalisib + Crizotinib (first compound 0.03 µM), 0.655. For the same cell line, the relative viability came to 0.552 with Omipalisib + Dasatinib (first compound 0.0003 µM); 0.349 with Omipalisib + Dasatinib (first compound 0.003 µM); 0.42 in the assay with Omipalisib + Dasatinib (first compound 0.03 µM); 0.23 with Omipalisib + Pemetrexed (first compound 0.0003 µM); 0.213 in the assay with Omipalisib + Pemetrexed (first compound 0.003 µM); 0.209 with Omipalisib + Pemetrexed (first compound 0.03 µM).
For the cell line ChaGo-K-1, the relative viability with Omipalisib + Palbociclib (first compound 0.0003 µM) is 0.853; with Omipalisib + Palbociclib (first compound 0.003 µM), 0.843; with Omipalisib + Palbociclib (first compound 0.03 µM), 0.708; in the assay with Omipalisib + Foretinib (first compound 0.0003 µM) it was 0.852; with Omipalisib + Foretinib (first compound 0.003 µM), 0.75; with Omipalisib + Foretinib (first compound 0.03 µM), 0.715. Besides, the relative viability with Omipalisib + OSI-027 (first compound 0.0003 µM) was 0.557; in the assay with Omipalisib + OSI-027 (first compound 0.003 µM), 0.374; in the assay with Omipalisib + OSI-027 (first compound 0.03 µM), 0.421; with Omipalisib + Crizotinib (first compound 0.0003 µM) it was 1.04; in the assay with Omipalisib + Crizotinib (first compound 0.003 µM), 1.09; with Omipalisib + Crizotinib (first compound 0.03 µM), 1.07. In addition, the relative viability came to 0.657 in the assay with Omipalisib + Dasatinib (first compound 0.0003 µM); 0.583 in the assay with Omipalisib + Dasatinib (first compound 0.003 µM); 0.473 in the assay with Omipalisib + Dasatinib (first compound 0.03 µM); 0.273 in the assay with Omipalisib + Pemetrexed (first compound 0.0003 µM); 0.254 with Omipalisib + Pemetrexed (first compound 0.003 µM); 0.255 with Omipalisib + Pemetrexed (first compound 0.03 µM).
For ABC-1, the relative viability was determined as 0.603 with Omipalisib + Palbociclib (first compound 0.0003 µM); 0.482 with Omipalisib + Palbociclib (first compound 0.003 µM); 0.364 in the assay with Omipalisib + Palbociclib (first compound 0.03 µM); 1.05 with Omipalisib + Foretinib (first compound 0.0003 µM); 0.824 with Omipalisib + Foretinib (first compound 0.003 µM); 0.561 with Omipalisib + Foretinib (first compound 0.03 µM). The relative viability was 0.518 with Omipalisib + OSI-027 (first compound 0.0003 µM); 0.382 in the assay with Omipalisib + OSI-027 (first compound 0.003 µM); 0.283 with Omipalisib + OSI-027 (first compound 0.03 µM); 0.811 with Omipalisib + Crizotinib (first compound 0.0003 µM); 0.899 with Omipalisib + Crizotinib (first compound 0.003 µM); 0.49 with Omipalisib + Crizotinib (first compound 0.03 µM). Also, the relative viability was found to be 0.424 with Omipalisib + Dasatinib (first compound 0.0003 µM), 0.499 with Omipalisib + Dasatinib (first compound 0.003 µM) and 0.35 in the assay with Omipalisib + Dasatinib (first compound 0.03 µM).
In the case of NCI-H727, the relative viability was found to be 0.644 in the assay with Omipalisib + Palbociclib (first compound 0.0003 µM); 0.487 in the assay with Omipalisib + Palbociclib (first compound 0.003 µM); 0.552 with Omipalisib + Palbociclib (first compound 0.03 µM); 0.937 with Omipalisib + Foretinib (first compound 0.0003 µM); 0.609 with Omipalisib + Foretinib (first compound 0.003 µM); 0.421 with Omipalisib + Foretinib (first compound 0.03 µM). For the same cell line, the relative viability with Omipalisib + OSI-027 (first compound 0.0003 µM) amounted to 0.596; in the assay with Omipalisib + OSI-027 (first compound 0.003 µM), 0.439; in the assay with Omipalisib + OSI-027 (first compound 0.03 µM) it was 0.393; with Omipalisib + Crizotinib (first compound 0.0003 µM), 0.707; with Omipalisib + Crizotinib (first compound 0.003 µM), 0.649; with Omipalisib + Crizotinib (first compound 0.03 µM), 0.391. The relative viability with Omipalisib + Dasatinib (first compound 0.0003 µM) was 0.353; with Omipalisib + Dasatinib (first compound 0.003 µM), 0.327; with Omipalisib + Dasatinib (first compound 0.03 µM), 0.366.
